{
  "source": "paper PMC1977926",
  "about": "“Human pancreatic cancer cell lines do not express receptors for somatostatin” (British Journal of Cancer, 1992)",
  "key": {"[1]": {"biological_target": "T1, somatostatin receptors (AR42J membranes) (Rattus norvegicus, UniProt P30680)", "T1 construct": "endogenous in cells; host or cells: AR42J rat pancreatic acinar tumour cell line (membrane preparation)", "T1 sequence (P30680 whole entry)": "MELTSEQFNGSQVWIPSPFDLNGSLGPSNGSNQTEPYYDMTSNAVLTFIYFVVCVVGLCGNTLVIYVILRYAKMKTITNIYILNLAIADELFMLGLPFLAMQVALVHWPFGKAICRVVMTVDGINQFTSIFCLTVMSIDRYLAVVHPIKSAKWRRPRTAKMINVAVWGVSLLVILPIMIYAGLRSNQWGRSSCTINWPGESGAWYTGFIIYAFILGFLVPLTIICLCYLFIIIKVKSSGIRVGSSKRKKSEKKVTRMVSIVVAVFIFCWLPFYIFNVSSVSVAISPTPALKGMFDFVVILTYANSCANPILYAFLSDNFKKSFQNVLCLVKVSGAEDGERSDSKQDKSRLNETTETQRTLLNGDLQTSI", "experiment": "Displacement binding, 125I-SS, AR42J membranes", "details": "125I-SS 0.5 nM, 1 h at 30 C", "excerpt": "(§1) Br. J. Cancer (1992), 66, 483 487 ? […] Somatostatin (SS) is a tetradecapeptide widely distributed throughout the body, being found in high concentrations in the brain, stomach, intestine and pancreas (Reichlin, 1983). Somatostatin exerts inhibitory actions on the cellular func- tions within a variety of tissues including secretion and growth (Konturek et al., 1988; Meyers & Coy, 1980; Schally, 1988). […] It has therefore been proposed that somatostatin may be capable of inhibiting pancreatic tumour growth indirectly via the suppression of secretion of pancreatic trophic hor- mones and/or by direct effects on the tumour itself (Schally et al., 1988; Liebow et al., 1989). […] For somatostatin to impair directly the growth of pancreatic cancer the cells should therefore express receptors for the peptide. The aim of these study was to determine the somatostatin receptor status of two human (MiaPaCa-2 & Panc-1) and a rat (AR42J) pancreatic cancer cell lines. […] DNA synthesis was assessed for the final 6 h by adding 0.5 liCi 3H-thymi- dine/well. […] Scin- tillation fluid was added to individual filter discs and the cell associated radioactivity counted in a beta counter (Packard 1900CA Tricarb). […] The protein content of the suspension was determined using a bicinchoninic acid kit (Pierce, Rockford, USA)."}, "[2]": {"test_system": "MiaPaCa-2 human ductal pancreatic carcinoma cell line", "experiment": "Proliferation of MiaPaCa-2 (3H-thymidine incorporation)", "type": "cell-based", "details": "three experiments, five determinations; for Stimulation of growth of MiaPaCa-2: serum free medium, 3H-thymidine incorporation, P<0.01 compared to untreated cells", "excerpt": "(§2) Br. J. Cancer (1992), 66, 483 487 ? […] Somatostatin (SS) is a tetradecapeptide widely distributed throughout the body, being found in high concentrations in the brain, stomach, intestine and pancreas (Reichlin, 1983). Somatostatin exerts inhibitory actions on the cellular func- tions within a variety of tissues including secretion and growth (Konturek et al., 1988; Meyers & Coy, 1980; Schally, 1988). […] It has therefore been proposed that somatostatin may be capable of inhibiting pancreatic tumour growth indirectly via the suppression of secretion of pancreatic trophic hor- mones and/or by direct effects on the tumour itself (Schally et al., 1988; Liebow et al., 1989). […] For somatostatin to impair directly the growth of pancreatic cancer the cells should therefore express receptors for the peptide. The aim of these study was to determine the somatostatin receptor status of two human (MiaPaCa-2 & Panc-1) and a rat (AR42J) pancreatic cancer cell lines. We have also studied the effects of somatostatin-14 and RC-160 on the proliferation of these three cell lines. Materials and methods Cell growth MiaPaCa-2 and Panc-1 are both human ductal pancreatic carcinoma cell lines and were obtained from the European Cell Culture Collection. AR42J is a rat pancreatic acinar tumour cell line and was kindly provided by Dr S. Watson (Cancer Research Campaign Laboratories, Nottingham Uni- versity). MiaPaCa-2 and Panc-l were routinely grown in Dulbecco's Modified Eagle's Medium (DMEM) containing 10% foetal calf serum (ICN Flow, Irvine). AR42J cells were grown in RPMI 1640 containing 10% FCS (ICN Flow, Irvine). The cells were trypsinised and plated out in 96 well plates at 5 x I04 cells ml-' in serum-free (SF) medium for 24 h. After this period of serum starvation the medium was supple- mented with EGF (Sigma, Dorset) or IGF-I (Peninsula, St Helens) with or without SS-14 (Sigma, Dorset) or RC-160 (Peninsula, St Helens). EGF, IGF-1, SS-14 and RC-160 were added at concentrations described in the Results section. The cells were then incubated for 48 h at 37?C. DNA synthesis was assessed for the final 6 h by adding 0.5 liCi 3H-thymi- dine/well. The cells were then collected onto filter mats using a semi-automatic cell harvester (Inotech, Switzerland). Scin- tillation fluid was added to individual filter discs and the cell associated radioactivity counted in a beta counter (Packard 1900CA Tricarb). Binding studies Binding of ['25I-tyr\"]Somatostatin (Amersham International) was performed on membranes prepared from the three cell lines. Cells were washed twice with phosphate buffered saline (pH 7.4), then removed from 150 cm2 flasks using a cell scraper. […] The protein content of the suspension was determined using a bicinchoninic acid kit (Pierce, Rockford, USA)."}, "[3]": {"test_system": "Panc-1 human ductal pancreatic carcinoma cell line", "experiment": "Proliferation of Panc-1 (3H-thymidine incorporation)", "type": "cell-based", "details": "48 h, three experiments, five determinations; for Stimulation of growth of Panc-1: serum free medium, 3H-thymidine incorporation, P<0.01 compared to untreated cells", "excerpt": "as §2"}, "[4]": {"biological_target": "T1, somatostatin receptors (AR42J membranes)", "experiment": "Saturation binding, 125I-SS, AR42J membranes", "details": "125I-SS 0.05-1 nM, 2 h at 30 C, single class of high affinity binding sites (abstract)", "excerpt": "as §1"}, "[5]": {"test_system": "somatostatin receptors (MiaPaCa-2 membranes)", "experiment": "Displacement binding, 125I-SS, MiaPaCa-2 membranes", "parameters": "species or system human", "details": "125I-SS 0.5 nM, unlabelled RC-160 10-6 to 10-11 M, 1 h at 30 C", "excerpt": "as §1"}, "[6]": {"test_system": "somatostatin receptors (Panc-1 membranes)", "experiment": "Displacement binding, 125I-SS, Panc-1 membranes", "parameters": "species or system human", "details": "125I-SS 0.5 nM, unlabelled RC-160 10-6 to 10-11 M, 1 h at 30 C", "excerpt": "as §1"}, "[7]": {"test_system": "tyrosine phosphatase activity", "details": "in vitro, MiaPaCa-2; ref Liebow et al., 1989; cited from earlier work", "excerpt": "(§3) Br. J. Cancer (1992), 66, 483 487 ? […] Summary The in vivo administration of somatostatin (SS) or its analogues is capable of suppressing the growth of pancreatic cancer in experimental animals. We examined the effects of SS-14 and its analogue RC-160 on the in vitro growth of ..."}, "[8]": {"test_system": "MiaPaCa-2", "details": "cited from earlier work", "excerpt": "as §3"}, "[9]": {"test_system": "EGF receptor", "details": "ref Hierowski et al., 1985; cited from earlier work", "excerpt": "as §3"}, "[10]": {"test_system": "somatostatin binding sites in human pancreatic cancer xenograft", "details": "ref Singh and colleagues (1991); cited from earlier work", "excerpt": "as §3"}, "[11]": {"test_system": "pancreatic exocrine secretion of protein and bicarbonate", "details": "ref Boden et al., 1975; cited from earlier work", "excerpt": "as §3"}, "[12]": {"test_system": "somatostatin receptors in human pancreatic adenocarcinomas", "details": "12 fresh adenocarcinomas; ref Reubi et al. (1988); cited from earlier work", "excerpt": "as §3"}, "[13]": {"test_system": "somatostatin receptors on MiaPaCa-2", "details": "no Kd quoted, no total or non-specific binding curves; ref Hierowski et al. (1985); cited from earlier work", "excerpt": "as §3"}, "[14]": {"test_system": "hamster experimental pancreatic cancer", "details": "ref Redding et al. (1984); cited from earlier work", "excerpt": "as §3"}, "[15]": {"test_system": "Panc-1", "details": "unstimulated cells, serum-free medium, one concentration; ref Liehr et al., 1990; cited from earlier work", "excerpt": "as §3"}, "[16]": {"test_system": "endocrine secretion of cholecystokinin, gastrin and secretin", "details": "ref Schally et al., 1978; cited from earlier work", "excerpt": "as §3"}, "[17]": {"test_system": "rat experimental pancreatic cancer", "details": "ref Redding et al. (1984); cited from earlier work", "excerpt": "as §3"}},
  "note": "Bridge positions count the residues as written; N and C are the ends. Square brackets hold non-standard residues; d marks the D form. Peptide text beside a SMILES is read from it. Tyr(3-I) = N[C@@H](Cc1ccc(O)c(I)c1)C(=O)O",
  "data": [
    {"compound": "CC(C)[C@@H]1NC(=O)[C@H](CCCCN)NC(=O)[C@@H](Cc2c[nH]c3ccccc23)NC(=O)[C@H](Cc2ccc(O)cc2)NC(=O)[C@@H](NC(=O)[C@H](N)Cc2ccccc2)CSSC[C@@H](C(=O)N[C@@H](Cc2c[nH]c3ccccc23)C(N)=O)NC1=O", "note": "[RC-160] (H-[dF]CY[dW]KVCW-NH2; disulfide 2-7)", "values": [
      {"measurement": "Displacement of radiolabelled somatostatin from AR42J membranes", "setting": "[1]; unlabelled RC-160 10-6 to 10-11 M, 50 mM Tris, 0.2% BSA, filtration", "result": 95, "unit": "%"},
      {"measurement": "IC50", "setting": "[1]; competition, AR42J membranes, non-linear regression", "result": 0.631, "unit": "nM"}
    ]},
    {"compound": "insulin-like growth factor 1 [IGF-1]", "values": [
      {"measurement": "Stimulation of growth of MiaPaCa-2", "setting": "[2]; 48 h", "result": "increased the proliferation of the two cell lines (P<0.01 compared to untreated cells)"},
      {"measurement": "Stimulation of growth of Panc-1", "setting": "[3]", "result": "increased the proliferation of the two cell lines (P<0.01 compared to untreated cells)"}
    ]},
    {"compound": "C[C@H](N)C(=O)NCC(=O)N[C@H]1CSSC[C@@H](C(=O)O)NC(=O)[C@H](CO)NC(=O)[C@H]([C@@H](C)O)NC(=O)[C@H](Cc2ccc(O)c(I)c2)NC(=O)[C@H]([C@@H](C)O)NC(=O)[C@H](CCCCN)NC(=O)[C@H](Cc2c[nH]c3ccccc23)NC(=O)[C@H](Cc2ccccc2)NC(=O)[C@H](Cc2ccccc2)NC(=O)[C@H](CC(N)=O)NC(=O)[C@H](CCCCN)NC1=O", "note": "[125I-Tyr11 somatostatin] (H-AGCKNFFWKT[Tyr(3-I)]TSC-OH; disulfide 3-14 (inferred); N-terminus and C-terminus assumed)", "values": [
      {"measurement": "Bmax", "setting": "[4]", "result": "2.1 +/- 0.26 pmoles mg-1 protein"},
      {"measurement": "Displaceable binding, MiaPaCa-2", "setting": "[5]", "result": "not displaceable binding was observed"},
      {"measurement": "Displaceable binding, Panc-1", "setting": "[6]", "result": "not displaceable binding was observed"}
    ]},
    {"compound": "SS-14: Somatostatin (SS) is a tetradecapeptide; SS-14 from Sigma, Dorset", "values": [
      {"measurement": "Promotion of tyrosine phosphatase activity", "setting": "[7]", "result": "promotion of tyrosine phosphatase activity"},
      {"measurement": "Inhibition of EGF-stimulated growth of MiaPaCa-2", "setting": "[8]; in vitro, ref Liebow et al. (1986; 1989)", "result": "all inhibit the EGF- stimulated growth of MiaPaCa-2"},
      {"measurement": "Growth inhibitory effect, MiaPaCa-2", "setting": "[8]; unstimulated cells, serum-free medium, one concentration, ref Liehr et al., 1990", "result": "no growth inhibitory effect"},
      {"measurement": "Dephosphorylation of the EGF receptor", "setting": "[9]", "result": "causes the dephosphorylation of the EGF receptor"},
      {"measurement": "Specific binding sites in human pancreatic cancer xenograft", "setting": "[10]", "result": "one of these xenografts expressed specific binding sites"},
      {"measurement": "Inhibition of pancreatic exocrine secretion", "setting": "[11]", "result": "inhibits the pancreatic exocrine secretion of protein and bicarbonate"},
      {"measurement": "Specific somatostatin receptors in fresh human pancreatic adenocarcinomas", "setting": "[12]", "result": "none of which contained specific somatostatin receptors"},
      {"measurement": "Bmax, MiaPaCa-2", "setting": "[13]", "result": 3.6, "unit": "fmole mg-' protein"},
      {"measurement": "Inhibition of hamster experimental pancreatic cancer growth", "setting": "[14]", "result": "inhibition of both rat and hamster experimental pancreatic cancer growth"},
      {"measurement": "Growth inhibitory effect, Panc-1", "setting": "[15]", "result": "no growth inhibitory effect"},
      {"measurement": "Inhibition of endocrine secretion of cholecystokinin, gastrin and secretin", "setting": "[16]", "result": "inhibits the pancreatic exocrine secretion of protein and bicarbonate (Boden et al., 1975) and the endocrine secretion of cholecystokinin, gastrin and secretin"},
      {"measurement": "Inhibition of rat experimental pancreatic cancer growth", "setting": "[17]", "result": "inhibition of both rat and hamster experimental pancreatic cancer growth"},
      {"measurement": "Effect on DNA synthesis in EGF stimulated MiaPaCa-2 cells", "setting": "[2]; EGF 10^-8 M, serum free DMEM, 48 h at 37 C, 3H-thymidine for final 6 h, P>0.05 compared to stimulated cells", "result": "neither SS-14 nor RC-160 had any effect on DNA synthesis"},
      {"measurement": "Effect on DNA synthesis in IGF-1 stimulated MiaPaCa-2 cells", "setting": "[2]; IGF-1 10^-8 M, serum free, 48 h, 3H-thymidine for final 6 h, P>0.05 compared to stimulated cells", "result": "neither SS-14 nor RC-160 had any effect on DNA synthesis"},
      {"measurement": "Effect on DNA synthesis in EGF stimulated Panc-1 cells", "setting": "[3]; EGF 10^-8 M, serum free, 3H-thymidine for final 6 h, P>0.05 compared to stimulated cells", "result": "neither SS-14 nor RC-160 had any effect on DNA synthesis"},
      {"measurement": "Effect on DNA synthesis in IGF-1 stimulated Panc-1 cells", "setting": "[3]; IGF-1 10^-8 M, serum free, 3H-thymidine for final 6 h, P>0.05 compared to stimulated cells", "result": "neither SS-14 nor RC-160 had any effect on DNA synthesis"}
    ]},
    {"compound": "epidermal growth factor [EGF, epidermal growth factor (Sigma, Dorset)]", "values": [
      {"measurement": "Stimulation of growth of MiaPaCa-2", "setting": "[2]; 48 h", "result": "stimulated the growth of both cell lines (P<0.01 compared to untreated cells), having a more pronounced effect on MiaPaCa-2"},
      {"measurement": "Stimulation of growth of Panc-1", "setting": "[3]", "result": "stimulated the growth of both cell lines (P<0.01 compared to untreated cells)"}
    ]}
  ]
}
